Read-outs that look alike come from different tables or passages of the source.
Columns and labels:
[1] = test system: human bladder cancer UM-UC-3 cells; test: MTT cell growth and proliferation assay, UM-UC-3 cells; assay type: cell-based; conditions: Homo sapiens, read-out: IC50, inhibition of cell proliferation
Experimental: (§1) FIG. 3. The effect of AITC on cell survival and proliferation. AITC was evaluated at the indicated concentrations in human bladder cancer UM-UC-3 cells, rat bladder cancer AY-27 cells, and normal human bladder epithelial cells (HUC). A. Cell growth inhibition, measured by MTT assay, 72-h AITC treatment. IC50 was calculated from nonlinear regression curve fit. B. Cell cycle arrest (□, subG1; ? , G1; ? , 5; ▪, G2/M), measured by flow cytometry, 24 h AITC treatment. C. Apoptosis induction, measured by an ELISA assay, 24 h AITC treatment. Mean±SE, n=3-6), *P<0.05.
(§2) FIG. 10. The effect of NAC-AITC on cell survival and proliferation. NAC-AITC was evaluated in both UM-UC-3 cells and AY-27 cells. (A) Chemical structures of AITC and NAC-AITC. (B) Cell growth and proliferation, measured by 3-([…])-2,5-diphenyltetrazolium bromide assay, 72 h treatment with AITC or NAC-AITC at indicated concentrations. IC50 was calculated from the non-linear regression curve fit. (C) Apoptosis, measured by an enzyme-linked immunosorbent assay, 24 h NAC-AITC treatment at 15 µM. (D) Cell cycle (open bars, G1; shaded bars, S; closed bars, G2/M), measured by flow cytometry, 24 h NAC-AITC treatment at 15 μM. *P<, 0.005, compared with control.
(§3) Assays for cell proliferation, cell cycle arrest and apoptosis. To determine the antiproliferative activity of NAC-AITC, AY-27 cells were grown in 96-well microtiter plates ([…] with 0.15 ml medium per well) for 24 h and then grown for 72 h in fresh medium (0.2 ml/well) containing a series of concentrations of NAC-AITC or solvent. Cell growth was measured at the end of treatment using the 3-([…])-2,5-diphenyltetrazolium bromide assay, from which the half maximal inhibitory concentration (IC50) of NAC-AITC was calculated. AITC was also evaluated for comparison.

[2] = test system: rat bladder cancer AY-27 cells; test: MTT cell growth and proliferation assay, AY-27 cells; assay type: cell-based; conditions: Rattus norvegicus, read-out: IC50, inhibition of cell proliferation
Experimental: as §1, §2, §3

[3] = test system: caspase-3, α-tubulin, β-tubulin, VEGF in AY-27 cells; test: Western blotting in cultured AY-27 cells; assay type: cell-based, rat; conditions: NAC-AITC 7.5 and 15 μM, 24 h
Experimental: FIG. 8. Inhibition of bladder cancer development by MSP-1. Female F344 rats were inoculated with AY-27 cells intravesically via a urethra catheter to initiate development of orthotopic bladder cancer. Oral administration of MSP-1 of vehicle (water) once daily was started 1 day after cancer cell inoculation and ended 3 weeks later. The number of rats per group varied from 11-29. A. Initial (□) and final (▪) body weights. B. Tumor weight was calculated by subtracting the average normal bladder weight from tumor-bearing bladder weight. *P<0.05. Each value in A and B is mean±SEM. C. Percentage of bladder where the tumor invaded the muscle tissue. D. The effects of MSP-1 on selected anticancer targets in UM-UC-3 cells (in vitro), AY-27 cells (in vitro) and AY-27 tumors (in vivo). The cells were treated with MSP-1 at the sinigrin concentrations of 13 and 26 microM for 24 h. The bladder tumors were removed from rats treated with MSP-1 at the sinigrin doses of 9 or 90 micromols/kg once daily for 3 weeks, started 1 day after cancer cell inoculation. Cell lysates and tumor homogenates were analyzed by Western blotting, using GAPDH as a loading control.
FIG. 13. Molecular targets of NAC-AITC in bladder cancer. AY-27 cells in culture were treated with NAC-AITC for 24 h. The results are representative of at least two experiments. The bladder tumors were removed from rats, which were treated with NAC-AITC orally at 10 μmol/kg once daily for 3 weeks, starting 1 day after intravesicular inoculation of AY-27 cells. The results are representative of three to five tumors assayed in each group. Cell lysates and tumor tissue homogenates were analyzed by western blot analysis, using GAPDH as a loading control.
Western blot analysis. Cells after harvest were washed with ice-cold phosphate-buffered saline, suspended in radioimmunoprecipitation assay lysis buffer supplemented with a protease inhibitor cocktail (Sigma-Aldrich) and further lysed by sonication. […]

[4] = Dissociation of NAC-AITC in phosphate buffer (HPLC); assay type: physicochemical; conditions: pH 7.4, 37° C.
Experimental: FIG. 11. Dissociation of NAC-AITC. NAC-AITC at 100 μM was freshly prepared in 20 mM sodium phosphate buffer (pH 7.4) containing 1% DMSO and incubated at 37° C. for 0, 0.5, 1, 2, 3, 4, 5 and 24 h. At each time point, an aliquot of the solution was analyzed for remaining NAC-AITC by HPLC. Each value is a mean±SD (n=3).
Measurement of dissociation of NAC-AITC. The assay was based on a known protocol. Briefly, a solution of NAC-AITC was prepared as rapidly as possible by dilution of 0.2 ml of 5 mM NAC-AITC freshly prepared in 20 mM sodium phosphate buffer (pH 7.4): DMSO (1:1) with 20 mM sodium phosphate buffer (pH 7.4) to 10 ml, resulting in a 0.1 mM NAC-AITC solution in 1% DMSO. An aliquot (0.05 ml) was immediately analyzed by HPLC; the remainder of the solution was incubated at 37° C. on a shaker, and an aliquot (0.05 ml) was analyzed by HPLC at different time points up to 24 h. The HPLC condition was the same as used in the urine analysis described above. A plot of the conjugate peak area remaining versus time was generated to determine the half-time of decomposition.

[5] = test system: normal human bladder epithelial cells (HUC); test: MTT cell growth assay, normal bladder epithelial cells; assay type: cell-based; conditions: 72-h treatment
Experimental: as §1

[6] = test system: normal human bladder epithelial cells (HUC); test: Cell cycle arrest and apoptosis in HUC; assay type: cell-based; conditions: 7.5 and/or 15 microM
Experimental: as §1

[7] = test system: cyclooxygenase-2 (Cox-2) in human bladder cancer HT1376 cells; test: Western blot analysis of Cox-2 in HT1376 cells; assay type: cell-based; conditions: 24 h, cells overexpressing Cox-2
Experimental: FIG. 5. The effects of AITC and SF on cyclooxygenase-2 (Cox-2) expression in human bladder cancer cells. Human bladder cancer HT1376 cells that over express Cox-2 were treated with AITC or SF at the indicated concentrations for 24 h and then harvested for Western blot analysis of Cox-2. GAPDH is used as a loading control.

| IC50 ([1]; UMUC3, Example 9, 72 h treatment) | IC50 ([2]; AY-27, Example 9, 72 h treatment) | half-time of dissociation [4] | SMILES | VEGF level [3] | caspase-3 cleavage/activation [3] | α-tubulin and β-tubulin levels [3] | IC50 ([1]; UMUC3, 72 h) | IC50 ([2]; AY-27, 72 h) | IC50 [5] | cell cycle arrest and apoptosis in HUC [6] | effect on Cox-2 expression [7] |
| --- | --- | --- | --- | --- | --- | --- | --- | --- | --- | --- | --- |
| 7.4 µM | 9.1 µM | ~12 h | C=CCNC(=S)SC[C@H](NC(C)=O)C(=O)O [NAC-AITC, N-acetyl-S—(N-allylthiocarbamoyl)cysteine] | downregulation | dose-dependent cleavage/activation | downregulation | – | – | – | – | – |
| – | – | – | C=CCN=C=S [AITC, allyl isothiocyanate] | – | – | – | 2.7 µM | 3.3 µM | 69.4 µM | failed to cause cell cycle arrest and apoptosis | not detectable |

From patent US9486434B2, “Method for delivery and use of isothiocyanates for prophylaxis and/or therapy of bladder cancer” (Health Research Inc., priority 2010, dated 2016)
